Measured values reported in patent US6472369B1, “Anticancer compounds and methods” (The Regents of the University of Michigan, priority 1996, dated 2002).

Tests used:
[1] = test system: metastatic SUM-52 PE breast cancer cells; test: SU-ECM invasion assay, SUM-52 PE breast cancer cells; assay type: cell-based, human; conditions: SUM-52 PE; for inhibition of PHSRN-induced invasion of SU-ECM: serum free medium, 100 ng per ml PHSRN, FIG. 5B; for inhibition of serum-induced invasion of SU-ECM: FIG. 5A
Experimental: Human breast carcinoma cell lines SUM 52 PE and SUM 44 PE were originally cultured from the pleural effusions of patients with metastatic breast cancer; and SUM 102 was cultured from a primary, microinvasive breast carcinoma (Ethier, S. P., Mahack, M. L., Gullick, W. J., Frank, T. S., and Weber, B. L. Differential isolation of normal luminal mammary epithelial cells and breast cancer cells from primary and metastatic sites using selective media. Cancer Res. 53: 627-635).
(§1) Adult Strongylocentrotus purpuratus sea urchins were obtained from Pacific BioMarine, and their embryos were cultured to the early pluteus stage in artificial sea water at 15° C. SU-ECM were prepared from them by treatment with nonionic detergent and strerilized by dilution in the appropriate media.
(§2) Cells were harvested by rinsing in Hanks' balanced salt solution, followed by brief treatment with 0.25% trypsin, 0.02% EDTA, and pelleting and resuspension in the appropriate medium with or without 5% FCS at a density of about 50,000 cells per ml. When appropriate, purified bovine plasma fibronectin (Sigma), purified 120 kDa chymotryptic fragment (Gibco BRL), PHSRN (SEQ ID NO:1) or PHSCN (SEQ ID NO:86) peptides (synthesized at the Biomedical Research Core Facilities of the University of Michigan), or GRGDSP (SEQ ID NO:83) or GRGESP (SEQ ID NO:84) peptides (Gibco BRL) were added to the resuspended cells prior to placement of the cells on SU-ECM. In each well of a plate used for an invasion assay, SU-ECM were placed in 0.5 ml of the appropriate medium, and 0.5 ml of the resuspended cells dropped on their exterior surfaces. Invasion assays were incubated 1 to 16 hours prior to assay. If some circumstances, invasion assays were fixed in phosphate-buffered saline (PBS) with 2% formaldehyde for 5 minutes at room temperature, then rinsed into PBS.
(§3) Invasion assays were coded and scored blindly by microscopic examination under phase contrast at 200- and 400-fold magnification. Each cell contacting an SU-ECM was scored for its position relative to the exterior or interior surfaces. A cell was judged to have invaded if it was located on an interior surface below the focal plane passing through the upper surface of the SU-ECM, but above the focal plane passing through its lower surface. The minimum viability of the cells in each assay was always ascertained at the time of assay by determining the fraction of spread, adherent cells on the bottom of each well scored.
(§4) An invasion frequency is defined as the fraction of cells in contact with basement membranes which were located in their interiors at the time of assay. Thus, an invasion frequency of 1 denotes invasion by 100% of the cells in contact with basement membranes. Invasion frequencies were determined multiple times for each cell type assayed. For each type of cell assayed the mean and standard deviation of the invasion frequencies were calculated.
The method of Example 4 is employed, with the addition of varying concentrations of the PHSCN (SEQ ID NO:86) peptide.
Thus, the procedure in Example 4 provides a method for determining the inhibitory potential of the PHSCN (SEQ ID NO:86) peptide by comparing the number of cell invasions in the presence of the PHSCN (SEQ ID NO:86) peptide, with the number of cell invasions in the absence of the PHSCN (SEQ ID NO:86) peptide.

[2] = test system: rat metastatic prostate carcinoma MatLyLu (MLL) cells; test: SU-ECM invasion assay, rat MatLyLu prostate carcinoma cells; assay type: cell-based; conditions: for inhibition of PHSRN-induced invasion of SU-ECM: serum free media, 100 ng per ml PHSRN, FIG. 7B
Experimental: as §1, §2, §3, §4
The result of adding a varying concentration of the PHSCN (SEQ ID NO:86) peptide to PHSRN-induced (SEQ ID NO:1) MLL cells in serum free media is shown in FIG. 7B, where 100 ng per ml of PHSRN (SEQ ID NO:1) was used to induce invasion.
The procedure described in Example 10, was employed using SU-ECM substrates in 10% FCS and PHS(hC)N (SEQ ID NO:85) instead of PHSCN (SEQ ID NO:86). The result of adding varying concentrations of the PHS(hC)N (SEQ ID NO:85) peptide to serum-induced MLL cells indicates this peptide also has an inhibitory affect on cell invasion (see FIG. 8).

MatLyLu (MLL) tumors = test: MLL prostate tumor growth and metastasis in rats, treatment begun with cell injection (Example 12); assay type: in vivo, Copenhagen rats
Experimental: In the first part of this example, four Copenhagen rats were injected with 500,000 MatLyLu (MLL) cells subcutaneously in the thigh. Two of these rats also received 1 mg of the PHSCN (SEQ ID NO:86) peptide along with the injected MLL cells, and thereafter received 1 mg of the PHSCN (SEQ ID NO:86) peptide injected in their tail vein three time per week for two weeks. The other two injected rats were left untreated. Tumor sizes were measured with calipers on day 14, and the tumors in the untreated rats were removed. […] It is possible that the ability of the PHSCN (SEQ ID NO:86) peptide to slow tumor growth is due to its inhibition of tumor invasion by normal endothelial cells, an anti-angiogenic effect.
Two weeks after the size of the tumors were measured, the rats were sacrificed and the mean number of lung metastases was determined at 10-fold magnification. The mean number of lung metastases in the untreated mice (MLL only) was nearly 35 in spite of the fact that the initial prostate tumors had been removed when their size was measured. The mean number of lung metastases in the treated mice (MLL +PHSCN (SEQ ID NO:86)) was less than 5, even though the initial prostate tumors were never removed because they were too small. […] In this manner, the PHSCN (SEQ ID NO:86) peptide provides effective in vivo therapy for cancer by preventing the lethal effects of tumor cell growth and metastasis.

For Pro-His-Ser-Cys-Asn (PHSCN), the “inhibition of PHSRN-induced invasion of SU-ECM” value ([1]; higher concentrations) was “almost complete inhibition”, the “inhibition of PHSRN-induced invasion of SU-ECM” value ([1]; low concentrations) was “substantial inhibitory affect” and the “inhibition of serum-induced invasion of SU-ECM” value ([1]; relatively high PHSCN concentrations) was “complete inhibition”. The “inhibition of serum-induced invasion of SU-ECM” value ([1]; relatively low PHSCN concentrations) was “substantial inhibitory affect”, the “inhibition of PHSRN-induced invasion of SU-ECM” value ([2]; higher concentrations) was “almost complete inhibition” and the “inhibition of PHSRN-induced invasion of SU-ECM” value ([2]; low concentrations) was “substantial inhibitory affect”. The “inhibition of serum-induced invasion of SU-ECM” value ([2]; serum-induced, I microgram per ml peptide, FIG. 7A) was “complete inhibition of invasion”, the “growth of injected MLL tumors (tumor size, calipers)” value (MatLyLu (MLL) tumors; day 14, 1 mg with cells, then 1 mg tail vein three times per week for two weeks, FIG. 9A) was “significantly slows the growth” and the “mean number of lung metastases” value (MatLyLu (MLL) tumors; two weeks after tumor measurement, 10-fold magnification, primary tumors not removed, FIG. 9B) was “less than 5”.
